Data: publication doi:10.1101/2020.01.20.912972v1 (biorxiv, 2020)
Each block holds one compound with its values, some of them ahead of it.

What was measured:
[1] = molecular target: TrpR (tryptophan repressor; TrpR-Wt) (Escherichia coli, UniProt P0A881); experiment: isothermal titration calorimetry; type: binding
[2] = molecular target: TrpR (tryptophan repressor; TrpR-Wt) (Escherichia coli, UniProt P0A881, S88Y); experiment: isothermal titration calorimetry; type: binding

Structure (SMILES): O=C(O)CCCc1c[nH]c2ccccc12 [IBA, Indole-3-butyric acid]
- Kd [1]: 32.7 ± 0.88 µM
- Kd [2]: 10.4 ± 1.25 µM

Structure (SMILES): Cc1ccc2[nH]cc(CC(N)C(=O)O)c2c1 (racemic) [5-Met-TRP, 5-Methyl-DL-Tryptophan]
- Kd [1]: 62.2 ± 15.6 µM

Structure (SMILES): O=C(O)Cc1c[nH]c2ccccc12 [IAA, Indole-3-acetic acid]
- Kd [1]: 162 ± 14 µM
- Kd [2]: 29.3 ± 2.08 µM

Further compounds by falling Kd [1], results first:

- Kd [1]: 40.3 ± 2.35 µM
Structure (SMILES): N[C@@H](Cc1c[nH]c2ccccc12)C(=O)O [TRP, Tryptophan]

- Kd [1]: 33.4 ± 1.16 µM
- Kd [2]: 7.49 ± 0.91 µM
Structure (SMILES): O=C(O)CCc1c[nH]c2ccccc12 [IPA, Indole-3-propionic acid]
